Laboratory results taken from US20250282817A1, “COMPOUNDS FOR DELIVERING GLUTATHIONE TO A TARGET AND METHODS OF MAKING AND USING THE SAME” (priority 2016, published 2025).

Columns and labels:
[1] = test system: cells; experiment: Oxygen consumption rate (OCR) after 3HP-dependent GSH loss (FIG. 6); assay type: cell-based
[2] = Menadione toxicity to hepatocytes from young and old rats (percent viability, LC50); assay type: cell-based, rat; conditions: rat
Excerpt: (§1) Hepatocytes isolated from an old rat have 60% less mitochondrial GSH than that seen in young adult animals. In this example, menadione was used as a redox cycler, to stress mitochondria in hepatocytes, as GSH-dependent mechanisms can be involved its detoxification. […] The increased vulnerability to menadione has been linked to the loss of GSH resulting from the decline in GSH synthesis capacity.
(§2) Menadione treatment alone served as the positive control.

[3] = test system: hepatocytes; experiment: as above; assay type: cell-based, rat
Excerpt: as §1, §2

[4] = test system: hepatocytes from aged rats; conditions: triphenylphosphonium alone
Experimental: Menadione treatment alone served as the positive control. Viability in untreated hepatocytes also was measured over two hours.

[5] = test system: mice; experiment: Effect of mitoGSH in animals: i.p. injection of TPP-GSSG, 48 hour observation, liver chemistry profile; assay type: in vivo; conditions: 3.8 mg/kg i.p.
Experimental: Three seven-month-old female non-transgenic mice (approximately 30 g each) were injected i.p. with 3.8 mg/kg TPP-GSSG in 100 μL/mouse. TPP-GSSG was initially solubilized in DMF and later diluted in millipure water to 5.3% (v/v) dimethylformamide for injection. […] All mice gained weight (0.1 g-2.3 g) over the 48 hour period. Blood was collected via brachial cut, spun down to collect plasma and then delivered to OSU Veterinary Diagnostic Laboratory for a small animal liver chemistry profile.

C=CC(O)CC(=O)O (stereo not drawn) [3HP, 3-hydroxy-4-pentenoate]
basal respiration, ATP turnover, proton leak, non-mitochondrial respiration (OCR) ([1]; 3HP-dependent GSH loss): does not alter | respiratory capacity (OCR) ([1]; higher levels of 3HP treatment): increasingly lost

CC1=CC(=O)c2ccccc2C1=O [menadione]
CC50 ([2]; isolated hepatocytes from old rats, hepatocytes from old rats): 300 µM | CC50 ([2]; isolated hepatocytes from young rats, hepatocytes from young rats): ~500 µM | CC50 ([3]; hepatocytes from old rats): 232 µM | CC50 ([3]; hepatocytes from young rats): 401 µM

Triphenylphosphonium
effect on hepatocyte viability [4]: did not affect viability

Triphenylphosphonium glutathione disulfide tetraethyl ester [TPP-GSSG]
health and activity of mice ([5]; 48 hours, female non-transgenic mice): no detrimental effects observed | small animal liver chemistry profile (plasma) ([5]; after 48 hours): No liver damage or abnormalities were detected
